The results in this text go back to patent publication US8772253B2, “Aureolic acid derivatives, the method for preparation thereof and the uses” (Entrechem, S.L., priority 2009, dated 2014).

The structures appear in SMILES notation.

What all share (format): cell-based
In assay [1] the test system is H116 (colon adenocarcinoma). Nature of the assay: MTT cell proliferation (cytotoxicity) assay, H116. As to conditions: H116 cells, MTT, 2 days incubation, triplicate; read-out: IC50 or concentration required to achieve 50% growth inhibition compared to untreated cells, H116 (colon). The protocol:
(§1) MTM and CRM derivatives were assayed against a collection of tumor cell lines. Tumor cell lines were obtained from The American Type and Culture Collection (ATCC), and the lines were the following; A549 (human lung carcinoma); H116 (colon adenocarcinoma); PSN1 (pancreatic adenocarcinoma) and T98G (human glyoblastoma). Cells were cultured in medium RPM1 containing 2 mM glutamine, 50 IU/ml penicillin and 50 μg/ml streptomycin. Culture medium for cell lines A549 and H116 was supplemeted with 5% FBS and culture medium for cell lines PSN1 and T98G was supplemented with 10% FBS.
(§2) The evaluation of compound cytotoxicity was carried out by determining cell viability using an assay based on metabolic reduction of 3-(4,5-dimethyl-2-thiazolyl)-2,5-diphenyltetrazolium bromide (MTT; Sigma Chemical Co. St. Louis, Mo.). This reduction reaction is carried out by mitochondrion succinate dehydrogenase of viable cells and produce formazan, a chromogenic compound that can be quantified by spectrophotometry.
(§3) The assay was carried out following the procedure described by Mosmann (J. Immunol. Methods 1983, 65, 55). Tumor cells were incubated in 96 well microtitre plates containing 200 μl of complete medium (with 4×10^3 cells/well for A549 and 6×10^3 cells/well for H116, PSN1 and T98G). Serial dilutions in DMSO of the test compounds (10 μg/ml, 5 μg/ml, 1 μg/ml, 0.5 μg/ml, 0.1 μg/ml, 0.05 μg/ml, 0.01 μg/ml, y 0.005 μg/ml) were added and after 2 days incubation (at 37° C., 5% CO2 and high relative humidity), 50 μl of MTT (1 mg/ml in PBS) was added to each well. The plates were incubated at 37° C. for 2 hours and the reduction product (formazan) was resuspended in 100 μl of DMSO and quantified at 490 nm with a spectrophotometer.

The subject of assay [2] is A549 (human lung carcinoma). Briefly: MTT cell proliferation (cytotoxicity) assay, A549. The conditions noted are these: A549 cells, MTT, 2 days incubation, triplicate; read-out: IC50 or concentration required to achieve 50% growth inhibition compared to untreated cells, A549 (lung). Here is the method: as §1, §2, §3
The subject of assay [3] is T98G (human glyoblastoma). Briefly: MTT cell proliferation (cytotoxicity) assay, T98G. As to conditions: T98G cells, MTT, 2 days incubation, triplicate; read-out: IC50 or concentration required to achieve 50% growth inhibition compared to untreated cells, T98G (glyoblastoma). Here is the method:
as §1, §2, §3

Assay [4] has as its system PSN1 (pancreatic adenocarcinoma). Nature of the assay: MTT cell proliferation (cytotoxicity) assay, PSN1. As to conditions: read-out: IC50 or concentration required to achieve 50% growth inhibition compared to untreated cells, PSN1 (pancreatic adenocarcinoma); PSN1 cells, MTT, 2 days incubation, triplicate; read-out: IC50 or concentration required to achieve 50% growth inhibition compared to untreated cells, PSN1 (prostate). Here is the method:
as §1, §2, §3

Turning to `CO[C@H](C(=O)C(C)=O)[C@@H]1Cc2cc3cc(O[C@H]4C[C@@H](O[C@H]5C[C@@H](O)[C@H](O)[C@@H](C)O5)[C@H](O)[C@@H](C)O4)c(C)c(O)c3c(O)c2C(=O)[C@H]1O[C@H]1C[C@@H](O[C@H]2C[C@@H](O[C@H]3C[C@](C)(O)[C@H](O)[C@@H](C)O3)[C@@H](O)[C@@H](C)O2)[C@H](O)[C@@H](C)O1` [MTM-SDK, reference compound], the IC50 in assay [1] stood at 9.4 nM; in assay [2] it was 9.4 nM; in assay [3], 47.4 nM; in assay [4] it was 9.4 nM.

Turning to `CO[C@@H]([C@@H]1Cc2cc3cc(O[C@H]4C[C@@H](O[C@H]5C[C@@H](O)[C@H](O)[C@@H](C)O5)[C@H](O)[C@@H](C)O4)c(C)c(O)c3c(O)c2C(=O)[C@H]1O[C@H]1C[C@@H](O[C@H]2C[C@@H](O[C@H]3C[C@](C)(O)[C@H](O)[C@@H](C)O3)[C@@H](O)[C@@H](C)O2)[C@H](O)[C@@H](C)O1)[C@@H](O)C(C)=O` [MTM-SK, reference compound], the IC50 came to 9.4 nM in assay [1], 9.4 nM in assay [2], 47.3 nM in assay [3] and 9.4 nM in assay [4].
